Data on six compounds can be found in patent US4772684A, “Peptides affecting blood pressure regulation” (Triton Biosciences, Inc., priority 1988, dated 1988).

Each structure is given as a SMILES string. Residues, ends and D or L forms follow the SMILES beside them.

The subject of the experiment is angiotensin II receptors. As to the kind of experiment: Inhibition of radiolabeled angiotensin II binding to isolated hepatic receptor. More on the design: species or system rabbit. To be noted: 0.25 nM [125I]angiotensin II, partially purified solubilized rabbit liver receptor, 60 minutes at 20° C. How it is done: Inhibition of angiotensin II binding to angiotensin II receptors by peptides of this invention was measured through the use of radioactive angiotensin II. Rabbit livers were homogenized and centrifuged in order to isolate particles sedimenting between 1,000 and 100,000×g. A portion of the particles which binds angiotensin II was solubilized with 1% digitonin, followed by ammonium sulfate fractionation between 49 and 65% saturation, followed by DEAE-cellulose chromatography at pH 7.5 using a linear gradient between 0.0 and 0.3 M KCl. The partially purified, solubilized receptor preparation bound 17 pmoles of angiotensin II per mg of protein when analyzed by Scatchard analysis, indicating a purity of approximately 0.1%.
The assay for binding of angiotensin II to the receptor was as follows: The complete system (150 μl) contained 30 mM Tris-HCl, pH 7.5, 2.5 mM K2 EDTA, 0.2 mM PCMS, 0.25 nM [^125 I]angiotensin II (ca. 100,000 cpm), 100 μg BSA, 0.25% (v/v) Brij 99 (a polyoxyethylene ether of a fatty alcohol) and 30 μg of partially purified receptor. The reaction was initiated by addition of the receptor and samples were incubated for 60 minutes at 20° C. The reaction was terminated with 1 ml of cold 0.5% charcoal/0.05% dextran in 100 mM Tris-HCl, pH 7.5. Tubes were vortexed and then allowed to stand 10 minutes at 4° C., after which they were centrifuged and their supernatants, containing protein-bound angiotensin II, were counted.
The complete system under these conditions regularly yields about 10,000 cpm of bound radioactivity. […] A sample including 20 nM cold angiotensin II was also run. Residual binding of radioactivity in this control was 35-45%. Certain peptides of this invention were dissolved in water, except for Peptide 5, which was dissolved in 3% DMSO, 0.04 M acetic acid, and 0.05 M HCl in water.
On to `CC[C@H](C)[C@H](NC(=O)[C@H](Cc1ccc(O)cc1)NC(=O)[C@@H](NC(=O)CNC(=O)[C@H](CCCCN)NC(C)=O)C(C)C)C(=O)N[C@@H](Cc1c[nH]cn1)C(=O)N[C@@H](C)C(=O)N[C@@H](CC(C)C)C(N)=O` [Peptide 9] (Ac-KGVYIHAL-NH2), for which the “ID50 (concentration of peptide that inhibited binding of radiolabeled angiotensin II by 50%)” value is 2,400-3,100 nM.

With `CSCC[C@H](NC(=O)[C@H](CC(=O)O)NC(=O)[C@@H](NC(=O)CNC(=O)[C@@H](N)CCCCN)C(C)C)C(=O)N[C@@H](Cc1c[nH]cn1)C(=O)N[C@@H](C)C(=O)N[C@@H](CC(C)C)C(=O)O` [Peptide 3, NH2LYSGLYVALASPMETHISALALEUCOOH] (H-KGVDMHAL-OH), the “ID50 (concentration of peptide that inhibited binding of radiolabeled angiotensin II by 50%)” value is 5,000 nM.

Turning to `CC[C@H](C)[C@H](NC(=O)[C@H](Cc1ccc(O)cc1)NC(=O)[C@@H](NC(=O)CNC(=O)[C@@H](N)CCCCN)C(C)C)C(=O)N[C@@H](Cc1c[nH]cn1)C(=O)N[C@@H](C)C(=O)N[C@@H](CC(C)C)C(N)=O` [Peptide 7, NH2LYSGLYVALTYRILEHISALALEUCONH2] (H-KGVYIHAL-NH2), the “ID50 (concentration of peptide that inhibited binding of radiolabeled angiotensin II by 50%)” value lay in the range of 40 to 160 nM.

Regarding `CSCC[C@H](NC(=O)[C@H](Cc1ccc(O)cc1)NC(=O)[C@@H](NC(=O)CNC(=O)[C@@H](N)CCCCN)C(C)C)C(=O)N[C@@H](Cc1c[nH]cn1)C(=O)N[C@@H](CO)C(=O)N[C@@H](CC(C)C)C(=O)O` [Peptide 13, NH2LYSGLYVALTYRMETHISSERLEUCOOH] (H-KGVYMHSL-OH), the “ID50 (concentration of peptide that inhibited binding of radiolabeled angiotensin II by 50%)” value is reported as 6 nM.

Consider `CC(C)[C@H](NC(=O)[C@@H]1CCCN1C(=O)[C@H](Cc1c[nH]cn1)NC(=O)[C@@H](NC(=O)[C@H](CC(=O)O)NC(=O)[C@@H](NC(=O)CNC(=O)[C@@H](N)CCC(N)=O)C(C)C)C(C)C)C(=O)O` [Peptide 12, NH2GLNGLYVALASPVALHISPROVALCOOH] (H-QGVDVHPV-OH), for which the “ID50 (concentration of peptide that inhibited binding of radiolabeled angiotensin II by 50%)” value was 5,000 nM.

For `CC(C)[C@H](NC(=O)[C@H](C)NC(=O)[C@H](Cc1ccc(O)cc1)NC(=O)[C@@H](NC(=O)[C@H](CC(=O)O)NC(=O)[C@@H](NC(=O)CNC(=O)[C@@H](N)CCCCN)C(C)C)C(C)C)C(=O)O` [Peptide 1, NH2 - LYS-GLY-VAL-ASP-VAL-TYR-ALA-VAL-COOH] (H-KGVDVYAV-OH), the “ID50 (concentration of peptide that inhibited binding of radiolabeled angiotensin II by 50%)” value was 4,000 nM.
